Data on 3 compounds can be found in patent publication US20020177621A1, “Antifungal fragrance composition” (priority 2000, published 2002).

Where “and” joins values, the source holds several entries; their conditions need not be identical. Identical values can stand only once. Entries after “also recorded” stand apart in the source; their conditions may differ.

Assay type in all cases: cell-based
The subject of experiment [1] is Aspergillus niger IFO 9455 (An-1). Nature of the experiment: Fragrant vapor antifungal activity (impregnated paper disc on cover of inverted agar plate). The settings on record: 72 hours at 27° C.; for IZ: Diameter of growth inhibition zone: 20 μl fragrance (or 40 μl of 50% ethanol solution) on disc, >85 = growth inhibited over entire plate; for Growth: Growth status outside the inhibition zone: compared with control. The procedure:
(§1) Physiological saline containing 0.05% Tween-80 was added to a slant on which the test organism grew well, and a spore suspension was produced at 1×10^6 CFU (Colony Forming Units)/ml in accordance with ordinary methods. Potato dextrose agar (PDA: Nissui Pharmaceutical) was used for the medium. To begin with, 10 ml of sterile PDA was pipetted into a Petri dish and after it solidified, another 6 ml of PDA containing 1% of the above described spore suspension was overlaid and solidified to prepare the test agar plate. For the fragrance sample, if the sample is in the form of liquid at ordinary temperatures, 20 μl of liquid was directly impregnated into a paper disc (Advantech, diameter: 8 mm, thick material), while a 50% by weight ethanol solution was prepared for crystals or powder, and 40 μl of that solution was then impregnated into the paper disc.
(§2) The test agar plate was placed inversely, and the paper disc impregnated with the fragrance sample was placed in the center of the cover of the agar plate, followed by incubating for 72 hours at 27° C. Evaluation was made based on the diameter (mm) of the mold growth inhibition zone. When mold growth was inhibited over the entire surface of the agar plate, the diameter of the growth inhibition zone was reported as >85 mm. At locations where mold grew outside the inhibition zone, the diameter of the spore formation inhibition zone and the degree of growth were recorded by comparing with a control. The molds used in the test are shown in Table 1, wherein these molds consist of mold species that are isolated at high frequencies from rooms and bath rooms.
(§3) The amount of blended fragrance added to the paper discs was 20 μl each, and only the diameter of the inhibition zone (mm) is indicated for the results.

The subject of experiment [2] is Aureobasidium pullulans IFO 6353 (Ap-1). The description is as above. Conditions: 72 hours at 27° C.; for IZ: Diameter of growth inhibition zone: 20 μl fragrance (or 40 μl of 50% ethanol solution) on disc, >85 = growth inhibited over entire plate; for Growth: Growth status outside the inhibition zone: compared with control. The procedure: as §1, §2, §3
Experiment [3] deals with Cladosporium cladosporioides IFO 6348 (Cc-1). The experiment is described as above. The settings on record: 72 hours at 27° C.; for IZ: Diameter of growth inhibition zone: 20 μl fragrance (or 40 μl of 50% ethanol solution) on disc, >85 = growth inhibited over entire plate; for Growth: Growth status outside the inhibition zone: 20 μl fragrance on disc, compared with control. The procedure: as §1, §2, §3

The next experiment deals with An-1 (Aspergillus niger). Nature of the experiment: Confirmation of synergistic action of two fragrances (vapor, paper disc). Conditions: for Additive effect: second fragrance that shows additive action with the fragrance component: combined IZ intermediate; for IZ (diameter of growth inhibition zone): sample amount on disc: citral 2 μl, benzaldehyde 10 μl, dimethyl tetrahydrobenzaldehyde 20 μl, geraniol 10 μl, octyl aldehyde 20 μl, 9-decen-1-ol 0.5 μl, trans-2-undecenal 3 μl, phenylacetaldehyde 5 μl, A + B = both amounts on one disc; for Growth (growth status outside the inhibition zone): sample amounts as in Table 3 (citral 2 μl, benzaldehyde 10 μl, dimethyl tetrahydrobenzaldehyde 20 μl, geraniol 10 μl, octyl aldehyde 20 μl, 9-decen-1-ol 0.5 μl, trans-2-undecenal 3 μl, phenylacetaldehyde 5 μl; A + B = both); for Synergistic effect: second fragrance that shows synergistic action with the fragrance component: combined IZ 20 mm or more larger than sum of single IZ. The procedure: An agar plate prepared according to the method of Example 1 was used while using An-1 (Aspergillus niger) for the test fungi. […] 10 μl of the ethanol containing the Table 3 prescribed amount of the fragrance was impregnated into a paper disc. The test agar plate was placed inversely, and the paper disc impregnated with each fragrance alone and a paper disc simultaneously impregnated with two types of fragrances were placed in the center of the cover, followed by incubating for 72 hours at 27° C. and measuring the diameters of the resulting growth inhibition zones.
The results obtained as in Example 2 with other combinations are shown in Tables 4 through 7 as combination examples of respective synergistic, additive and antagonistic actions for each fragrant chemical product (a). […] It should be noted that in order to make the table smaller, combinations that have already been listed once are not listed in other columns of the tables.

Consider `C=CCc1ccc(O)c(OC)c1` [Eugenol], for which the “IZ: Diameter of growth inhibition zone” value amounted to 40 mm in experiment [1], 40 mm in experiment [2] and 70 mm in experiment [3]. The “SI: Diameter of spore formation inhibition zone” value in experiment [1] (20 μl fragrance on disc) and in experiment [2] (20 μl fragrance on disc) was 60 mm throughout. Moreover, the “Growth: Growth status outside the inhibition zone” value in experiment [1] (20 μl fragrance on disc) is “good”; in experiment [2] (20 μl fragrance on disc), “good”; in experiment [3], “weak”. The “Antagonistic effect: second fragrance that shows antagonistic action with the fragrance component” value in the experiment on An-1 (Aspergillus niger) (value = combination partner, combined IZ 20 mm or more smaller than sum of single IZ) is given as “Phenylacetaldehyde,; also recorded: Anisaldehyde,”. The “Additive effect: second fragrance that shows additive action with the fragrance component” value (“Additive effect” for short) in the experiment on An-1 (Aspergillus niger) (value = combination partner) is “Thymol”.
Take `CC1=CC(C)C(C=O)CC1` (stereo not shown) [Dimethyl tetrahydrobenzaldehyde, dimethyl tetrahydrobenzaldehyde]: the “IZ: Diameter of growth inhibition zone” value is given as 0 mm in experiment [1], >85 mm in experiment [2] and >85 mm in experiment [3]. The “Growth: Growth status outside the inhibition zone” value in experiment [1] (20 μl fragrance on disc) was “weak”; in experiment [2] (20 μl fragrance on disc), “sparse”; in experiment [3] it was “sparse”. Moreover, the “IZ (diameter of growth inhibition zone)” value in the experiment on An-1 (Aspergillus niger) (72 hours at 27° C.) came out at 0 mm. Besides, in the experiment with An-1 (Aspergillus niger) (72 hours at 27° C.), the “Growth (growth status outside the inhibition zone)” value is given as “weak”. Also, the “SI (diameter of spore formation inhibition zone)” value with An-1 (Aspergillus niger) (72 hours at 27° C., sample amounts as in Table 3 (citral 2 μl, benzaldehyde 10 μl, dimethyl tetrahydrobenzaldehyde 20 μl, geraniol 10 μl, octyl aldehyde 20 μl, trans-2-undecenal 3 μl, phenylacetaldehyde 5 μl; A + B = both)) was >85 mm. Besides, in the experiment with An-1 (Aspergillus niger) (value = combination partner), the “Synergistic effect: second fragrance that shows synergistic action with the fragrance component” value is given as “Cumin aldehyde; also recorded: Geraniol”. In the experiment on An-1 (Aspergillus niger) (value = combination partner), the “Additive effect” value is “Thymol, and 1-Decanol”.
In the case of `C=CCCCCCCCCO` [Example 9-Decen-1-ol, 9-Decen-1-ol], the “IZ: Diameter of growth inhibition zone” value in experiment [1] is >85 mm; in experiment [2], 65 mm; in experiment [3], >85 mm. The “Growth: Growth status outside the inhibition zone” value was “none” in experiment [1] (20 μl fragrance on disc), “weak” in experiment [2] (20 μl fragrance on disc) and “none” in experiment [3]. For the same compound, the “IZ (diameter of growth inhibition zone)” value with An-1 (Aspergillus niger) (72 hours at 27° C.) is recorded as 0 mm. In addition, the “Growth (growth status outside the inhibition zone)” value in the experiment on An-1 (Aspergillus niger) (72 hours at 27° C.) was “weak”. Besides, in the experiment on An-1 (Aspergillus niger) (value = combination partner), the “Synergistic effect: second fragrance that shows synergistic action with the fragrance component” value is on record as 1-Decanol. Further, the “Additive effect” value in the experiment with An-1 (Aspergillus niger) (value = combination partner) was “Thymol”.
